Among the data in US20230159532A1, “PARATHYROID HORMONE (PTH) RECEPTOR ANTAGONISTS AND USES THEREOF” (Crinetics Pharmaceuticals, Inc., priority 2021, published 2023) are Ki values, retold here.

In the experiment the target is T1, human PTHR1 receptor (Homo sapiens, UniProt Q03431).
T1 construct: purchased Eurofins HTS030M
T1 sequence (Q03431 27-593): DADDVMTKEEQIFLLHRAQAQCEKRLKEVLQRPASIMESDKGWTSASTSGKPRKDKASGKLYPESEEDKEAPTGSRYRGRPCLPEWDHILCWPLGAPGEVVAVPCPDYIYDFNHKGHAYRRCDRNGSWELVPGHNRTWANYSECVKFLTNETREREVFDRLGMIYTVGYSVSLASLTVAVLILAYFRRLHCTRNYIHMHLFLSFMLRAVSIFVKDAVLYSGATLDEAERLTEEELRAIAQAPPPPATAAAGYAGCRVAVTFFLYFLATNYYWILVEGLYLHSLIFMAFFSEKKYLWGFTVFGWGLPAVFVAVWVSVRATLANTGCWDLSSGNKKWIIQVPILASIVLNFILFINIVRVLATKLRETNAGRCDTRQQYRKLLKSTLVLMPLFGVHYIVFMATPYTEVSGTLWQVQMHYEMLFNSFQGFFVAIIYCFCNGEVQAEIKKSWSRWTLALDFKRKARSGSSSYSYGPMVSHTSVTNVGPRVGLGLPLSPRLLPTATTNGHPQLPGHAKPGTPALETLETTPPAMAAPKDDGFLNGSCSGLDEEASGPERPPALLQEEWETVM
Kind of experiment: Competitive antagonist binding assay for hPTH-R1 (radioactive competition binding, SPA beads). Particulars: human PTHR1 membranes, [125I]-[Nle8,18,Tyr34]-PTH(1-34) 0.2 nM, 90 minutes at room temperature; read-out: hPTHR1 Ki. In a few lines:
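Displacement of 0.2 nM radioiodinated [Nle8,18,Tyr34]-PTH(1-34) from membrane-bound human PTHR1 measured by scintillation proximity after 90 min at room temperature. Compounds typically 0-10,000 nM final, pH 7.4 HEPES/Mg/Ca buffer with BSA and detergent. Ki calculated from competition data.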

As a reminder, the pKi is −log10 of the Ki, conventionally taken in molar units.

SMILES strings stand for the structures. pKi: −log10 of the molar value.

As for `CCN1C(=O)N(c2c(F)cc(NCCNC[C@H]3CCC(=O)N3)cc2F)c2cc(C#N)ccc2-c2cc(Cl)cnc21` [1-170, 4-chloro-10-(2,6-difluoro-4-{[2-({[(2R)-5-oxopyrrolidin-2-yl]methyl}amino)ethyl]amino}phenyl)-8-ethyl-9-oxo-6,8,10-triazatricyclo[9.4.0.0^2,7]pentadeca-1(11),2(7),3,5,12,14-hexaene-13-carbonitrile], the negative-log Ki (pKi) was greater than 7.00. `CCN1C(=O)N(c2c(F)cc(NCCNC[C@H](O)CO)cc2F)c2cc(C#N)ccc2-c2cc(Cl)cnc21` [1-171, 4-chloro-10-{4-[(2-{[(2S)-2,3-dihydroxypropyl]amino}ethyl)amino]-2,6-difluorophenyl}-8-ethyl-9-oxo-6,8,10-triazatricyclo[9.4.0.0^2,7]pentadeca-1(11),2(7),3,5,12,14-hexaene-13-carbonitrile]: the pKi is greater than 7.00. Take `CCN1C(=O)N(c2c(F)cc(NCCNCCNC(=O)NC)cc2F)c2cc(C#N)ccc2-c2cc(F)cnc21` [1-172, 1-[2-({2-[(4-{13-cyano-8-ethyl-4-fluoro-9-oxo-6,8,10-triazatricyclo[9.4.0.0^2,7]pentadeca-1(11),2(7),3,5,12,14-hexaen-10-yl}-3,5-difluorophenyl)amino]ethyl}amino)ethyl]-3-methylurea]: the pKi is greater than 7.00.

As for `CCN1C(=O)N(c2c(F)cc(NCCN[C@H](C)CO)cc2F)c2cc(C#N)ccc2-c2cc(Cl)cnc21` [1-173, 4-chloro-10-{2,6-difluoro-4-[(2-{[(2R)-1-hydroxypropan-2-yl]amino}ethyl)amino]phenyl}-8-ethyl-9-oxo-6,8,10-triazatricyclo[9.4.0.0^2,7]pentadeca-1(11),2(7),3,5,12,14-hexaene-13-carbonitrile], the negative logarithm of the Ki (pKi) was greater than 7.00.

Take `CCN1C(=O)N(c2c(F)cc(NCCNC[C@@H]3CCC(=O)N3)cc2F)c2cc(C#N)ccc2-c2cc(Cl)cnc21` [1-174, 4-chloro-10-(2,6-difluoro-4-{[2-({[(2S)-5-oxopyrrolidin-2-yl]methyl}amino)ethyl]amino}phenyl)-8-ethyl-9-oxo-6,8,10-triazatricyclo[9.4.0.0^2,7]pentadeca-1(11),2(7),3,5,12,14-hexaene-13-carbonitrile]: the pKi was greater than 7.00. Consider `CCN1C(=O)N(c2c(F)cc(NCCNCCCS(=O)(=O)O)cc2F)c2cc(C#N)ccc2-c2cc(Cl)cnc21` [1-175, 3-({2-[(4-{4-chloro-13-cyano-8-ethyl-9-oxo-6,8,10-triazatricyclo[9.4.0.0^2,7]pentadeca-1(11),2(7),3,5,12,14-hexaen-10-yl}-3,5-difluorophenyl)amino]ethyl}amino)propane-1-sulfonic acid], for which the negative-log Ki (pKi) was greater than 7.00. Consider `CCN1C(=O)N(c2c(F)cc(NCCNCC3CCC(=O)N3)cc2F)c2cc(C#N)ccc2-c2cc(Cl)cnc21` (stereo not shown) [1-176, 4-chloro-10-{2,6-difluoro-4-[(2-{[(5-oxopyrrolidin-2-yl)methyl]amino}ethyl)amino]phenyl}-8-ethyl-9-oxo-6,8,10-triazatricyclo[9.4.0.0^2,7]pentadeca-1(15),2(7),3,5,11,13-hexaene-13-carbonitrile], for which the pKi is greater than 7.00. As for `CCN1C(=O)N(c2c(F)cc(NCCN[C@@H]3CC[C@@H]3O)cc2F)c2cc(C#N)ccc2-c2cc(Cl)cnc21` [1-177, 4-chloro-10-{2,6-difluoro-4-[(2-{[(1R,2S)-2-hydroxycyclobutyl]amino}ethyl)amino]phenyl}-8-ethyl-9-oxo-6,8,10-triazatricyclo[9.4.0.0^2,7]pentadeca-1(11),2(7),3,5,12,14-hexaene-13-carbonitrile], the pKi was greater than 7.00. As for `CCN1C(=O)N(c2c(F)cc(NCCNCCC(=O)O)cc2F)c2cc(C#N)ccc2-c2cc(Cl)cnc21` [1-178, 3-({2-[(4-{4-chloro-13-cyano-8-ethyl-9-oxo-6,8,10-triazatricyclo[9.4.0.0^2,7]pentadeca-1(11),2(7),3,5,12,14-hexaen-10-yl}-3,5-difluorophenyl)amino]ethyl}amino)propanoic acid], the pKi is greater than 7.00. With `CCN1C(=O)N(c2c(F)cc(NCCN[C@@H]3CC[C@H]3O)cc2F)c2cc(C#N)ccc2-c2cc(Cl)cnc21` [1-179, 4-chloro-10-{2,6-difluoro-4-[(2-{[(1R,2R)-2-hydroxycyclobutyl]amino}ethyl)amino]phenyl}-8-ethyl-9-oxo-6,8,10-triazatricyclo[9.4.0.0^2,7]pentadeca-1(11),2(7),3,5,12,14-hexaene-13-carbonitrile], the pKi was greater than 7.00. For `CCN1C(=O)N(c2c(F)cc(NCCNC[C@H](C)O)cc2F)c2cc(C#N)ccc2-c2cc(Cl)cnc21` [1-180, 4-chloro-10-{2,6-difluoro-4-[(2-{[(2S)-2-hydroxypropyl]amino}ethyl)amino]phenyl}-8-ethyl-9-oxo-6,8,10-triazatricyclo[9.4.0.0^2,7]pentadeca-1(11),2(7),3,5,12,14-hexaene-13-carbonitrile], the pKi was greater than 7.00. On to `CCN1C(=O)N(c2c(F)cc(NCCNCCOCCO)cc2F)c2cc(C#N)ccc2-c2cc(Cl)cnc21` [1-181, 4-chloro-10-{2,6-difluoro-4-[(2-{[2-(2-hydroxyethoxy)ethyl]amino}ethyl)amino]phenyl}-8-ethyl-9-oxo-6,8,10-triazatricyclo[9.4.0.0^2,7]pentadeca-1(11),2(7),3,5,12,14-hexaene-13-carbonitrile], for which the negative logarithm of the Ki (pKi) is greater than 7.00. With `CCN1C(=O)N(c2c(F)cc(N3CCC(NCCO)C3)cc2F)c2cc(C#N)ccc2-c2cc(Cl)cnc21` (stereo not shown) [1-182, 4-chloro-10-(2,6-difluoro-4-{3-[(2-hydroxyethyl)amino]pyrrolidin-1-yl}phenyl)-8-ethyl-9-oxo-6,8,10-triazatricyclo[9.4.0.0^2,7]pentadeca-1(11),2(7),3,5,12,14-hexaene-13-carbonitrile], the pKi was greater than 7.00.

In the case of `CCN1C(=O)N(c2c(F)cc(NCCNC[C@@H](O)CO)cc2F)c2cc(C#N)ccc2-c2cc(Cl)cnc21` [1-183, 4-chloro-10-{4-[(2-{[(2R)-2,3-dihydroxypropyl]amino}ethyl)amino]-2,6-difluorophenyl}-8-ethyl-9-oxo-6,8,10-triazatricyclo[9.4.0.0^2,7]pentadeca-1(11),2(7),3,5,12,14-hexaene-13-carbonitrile], the negative-log Ki (pKi) is greater than 7.00. Take `CCN1C(=O)N(c2c(F)cc(NCCN[C@@H]3CC[C@@H]3O)cc2F)c2cc(C#N)ccc2-c2cc(C(F)(F)F)cnc21` [1-184, 10-{2,6-difluoro-4-[(2-{[(1R,2S)-2-hydroxycyclobutyl]amino}ethyl)amino]phenyl}-8-ethyl-9-oxo-4-(trifluoromethyl)-6,8,10-triazatricyclo[9.4.0.0^2,7]pentadeca-1(11),2(7),3,5,12,14-hexaene-13-carbonitrile]: the negative-log Ki (pKi) was greater than 7.00.

`CCN1C(=O)N(c2c(F)cc(NCCN[C@@H](C)CO)cc2F)c2cc(C#N)ccc2-c2cc(Cl)cnc21` [1-185, 4-chloro-10-{2,6-difluoro-4-[(2-{[(2S)-1-hydroxypropan-2-yl]amino}ethyl)amino]phenyl}-8-ethyl-9-oxo-6,8,10-triazatricyclo[9.4.0.0^2,7]pentadeca-1(11),2(7),3,5,12,14-hexaene-13-carbonitrile]: the negative logarithm of the Ki (pKi) is greater than 7.00.
